# Reference: patent US10562882B2, “Piperidine derivatives for use in the treatment or prevention of psychiatric and neurological conditions” (Takeda Pharmaceutical Company Limited, priority 2013, dated 2020)
# Structures can show the parent of a compound that is named as a salt.
# Biological target: human PKR1 receptors (Homo sapiens (Human), UniProt Q8TCW9)
# Test: PKR1 antagonist intracellular calcium (FLIPR) assay, block of PK1-mediated calcium release
# Type: cell-based
# Conditions: RBL2H3 cells expressing human PKR1; PK1 at EC80; minimum of two independent assays
# Procedure: Prokineticin receptor 1 (PKR1) antagonists may be functionally assessed by measurement of change in intracellular calcium levels induced by Gq mediated increase in inositol triphosphate (IP3) levels. The ability of a compound to block the intracellular release of calcium mediated by PK1 in RBL2H3 cells expressing human PKR1 receptors is determined as a measure of the compound's antagonist activity in vitro.
# Approximately 10,000 cells per assay well are seeded in normal culture medium in a 384 well plate (Corning). Twenty-four hours after seeding, the cells are loaded with a calcium sensitive fluorescent dye by replacing the culture medium with assay buffer (1× Hanks buffered saline, 25 mM HEPES, 0.1% w/v fatty acid free BSA (bovine serum albumin), pH 7.4) containing 1 mM probenecid and 1× Calcium 5 Reagent (Molecular Devices). Cells are incubated at 37° C. for 1 hour to allow for dye uptake.
# To test for antagonist activity, test compounds at a final concentration range between 0.32 nM-10 μM (diluted in assay buffer) are added to duplicate assay wells and allowed to incubate for 10 minutes prior to stimulation with PK1. After incubation with test compounds the assay plate is placed in a FLIPR Tetra (Molecular Devices) and PK1 (diluted in assay buffer) is added at the determined EC80 concentration (final). Ligand-dependent changes in intracellular calcium levels are determined by measuring changes in fluorescence of the dye at […] following excitation at 485 nm. […] A minimum of two IC50 values determined from independent assays are generated for each compound.
# Sequence of human PKR1 receptors (Q8TCW9 whole entry): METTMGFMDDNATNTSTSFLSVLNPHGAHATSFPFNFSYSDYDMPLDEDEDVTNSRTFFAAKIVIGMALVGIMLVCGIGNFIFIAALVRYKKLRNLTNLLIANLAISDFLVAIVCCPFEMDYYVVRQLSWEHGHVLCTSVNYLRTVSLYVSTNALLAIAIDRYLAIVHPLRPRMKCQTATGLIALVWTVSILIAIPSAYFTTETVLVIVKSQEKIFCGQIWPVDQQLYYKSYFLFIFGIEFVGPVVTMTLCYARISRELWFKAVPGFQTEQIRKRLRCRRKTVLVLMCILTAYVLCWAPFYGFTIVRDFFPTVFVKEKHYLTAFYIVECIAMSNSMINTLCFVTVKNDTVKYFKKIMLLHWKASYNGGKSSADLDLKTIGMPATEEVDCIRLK
row,IC50,SMILES
1,2.59 µM,"CCn1cc(C(=O)N2CCCC(c3cc4cc(C)ccc4n3CC)C2)cn1 (stereo not drawn) [Example 17, 1-Ethyl-2-{1-[(1-ethyl-1H-pyrazol-4-yl)carbonyl]piperidin-3-yl}-5-methyl-1H-indole]"
2,1.25 µM,"CCn1c(C2CCCN(C(=O)c3cnnc(NC)c3)C2)cc2cc(Cl)ccc21 (stereo not drawn) [Example 20, 5-[3-(5-Chloro-1-ethyl-1H-indol-2-yl)piperidine-1-carbonyl]-N-methylpyridazin-3-amine]"
3,1.73 µM,"CCn1c(C2CCCN(C(=O)c3cnnc(N(C)C)c3)C2)cc2cc(Cl)ccc21 (stereo not drawn) [Example 22, 5-[3-(5-Chloro-1-ethyl-1H-indol-2-yl)piperidine-1-carbonyl]-N,N-dimethylpyridazin-3-amine]"
4,0.91 µM,"CCn1c(C2CCCN(C(=O)c3cn(C)nc3N)C2)cc2cc(Cl)ccc21 (stereo not drawn) [Example 27, 4-[3-(5-Chloro-1-ethyl-1H-indol-2-yl)piperidine-1-carbonyl]-1-methyl-1H-pyrazol-3-amine]"
5,0.48 µM,"CNc1cc(C(=O)N2CCCC(OC)(c3ncc(Cl)cc3C(F)(F)F)C2)ccn1 (stereo not drawn) [Example 29, 4-{3-[5-Chloro-3-(trifluoromethyl)pyridin-2-yl]-3-methoxypiperidine-1-carbonyl}-N-methylpyridin-2-amine formate]"
6,0.29 µM,"CNc1cc(C(=O)N2CCCC(F)(c3ncc(Cl)cc3C)C2)ccn1 (stereo not drawn) [Example 35, 4-[3-(5-Chloro-3-methylpyridin-2-yl)-3-fluoropiperidine-1-carbonyl]-N-methylpyridin-2-amine]"
7,1.49 µM,"CNc1cc(C(=O)N2CCCC(OC)(c3ncc(Cl)cc3C)C2)cnn1 (stereo not drawn) [Example 36, 5-[3-(5-Chloro-3-methylpyridin-2-yl)-3-methoxypiperidine-1-carbonyl]-N-methylpyridazin-3-amine]"
8,2.39 µM,"CCn1cc(C(=O)N2CCCC(F)(c3ncc(Cl)cc3C)C2)cn1 (stereo not drawn) [Example 41, 5-Chloro-2-[1-(1-ethyl-1H-pyrazole-4-carbonyl)-3-fluoropiperidin-3-yl]-3-methylpyridine]"
9,> 9 µM,"COC1(c2ncc(Cl)cc2C)CCCN(C(=O)c2cn(C)nc2N)C1 (stereo not drawn) [Example 42, 4-[3-(5-Chloro-3-methylpyridin-2-yl)-3-methoxypiperidine-1-carbonyl]-1-methyl-1H-pyrazol-3-amine]"
10,> 5 µM,"Cc1cc(Cl)cnc1C1(F)CCCN(C(=O)c2cn(C)nc2N)C1 (stereo not drawn) [Example 43, 4-[3-(5-Chloro-3-methylpyridin-2-yl)-3-fluoropiperidine-1-carbonyl]-1-methyl-1H-pyrazol-3-amine]"

# Further lines, the compound ahead of its results:
row,SMILES,IC50
1,"CCn1c(C2CCCN(C(=O)c3cnnc(NC)c3)C2)c(C)c2ccccc21 (stereo not drawn) [Example 18, 5-[3-(1-Ethyl-3-methyl-1H-indol-2-yl)piperidine-1-carbonyl]-N-methylpyridazin-3-amine]",2.17 µM
2,"CCn1c(C2CCCN(C(=O)c3cnnc(NC)c3)C2)cc2cc(C)ccc21 (stereo not drawn) [Example 19, 5-[3-(1-Ethyl-5-methyl-1H-indol-2-yl)piperidine-1-carbonyl]-N-methylpyridazin-3-amine]",2.69 µM
3,"CCn1c(C2CCCN(C(=O)c3cnnc(N(C)C)c3)C2)cc2cc(C)ccc21 (stereo not drawn) [Example 21, 5-[3-(1-Ethyl-5-methyl-1H-indol-2-yl)piperidine-1-carbonyl]-N,N-dimethylpyridazin-3-amine]",5.34 µM
4,"CNc1cc(C(=O)N2CCCC(c3[nH]c4ccccc4c3C)C2)cnn1 (stereo not drawn) [Example 23, N-Methyl-5-[3-(3-methyl-1H-indol-2-yl)piperidine-1-carbonyl]pyridazin-3-amine]",7.41 µM
5,"Cc1c(C2CCCN(C(=O)c3cnnc(N(C)C)c3)C2)[nH]c2ccccc12 (stereo not drawn) [Example 24, N,N-Dimethyl-5-[3-(3-methyl-1H-indol-2-yl)piperidine-1-carbonyl]pyridazin-3-amine]",7.41 µM
6,"CCn1c(C2CCCN(C(=O)c3cn(C)nc3N)C2)c(C)c2ccccc21 (stereo not drawn) [Example 25, 4-[3-(1-Ethyl-3-methyl-1H-indol-2-yl)piperidine-1-carbonyl]-1-methyl-1H-pyrazol-3-amine]",7.86 µM
7,"CCn1c(C2CCCN(C(=O)c3cn(C)nc3N)C2)cc2cc(C)ccc21 (stereo not drawn) [Example 26, 4-[3-(1-Ethyl-5-methyl-1H-indol-2-yl)piperidine-1-carbonyl]-1-methyl-1H-pyrazol-3-amine]",3.12 µM
8,"Cc1cc(Cl)cnc1C1CCCN(C(=O)c2cnnc(N(C)C)c2)C1 (stereo not drawn) [Example 28, 5-[3-(5-Chloro-3-methylpyridin-2-yl)piperidine-1-carbonyl]-N,N-dimethylpyridazin-3-amine]",1.04 µM
9,"CNc1cc(C(=O)N2CCCC(OC)(c3ncc(Cl)cc3C(F)(F)F)C2)cnn1 (stereo not drawn) [Example 30, 5-({3-[5-Chloro-3-(trifluoromethyl)pyridin-2-yl]-3-methoxypiperidin-1-yl}carbonyl)-N-methylpyridazin-3-amine]",2.08 µM
10,"COC1(c2ncc(Cl)cc2C(F)(F)F)CCCN(C(=O)c2cnnc(N(C)C)c2)C1 (stereo not drawn) [Example 31, 5-{3-[5-Chloro-3-(trifluoromethyl)pyridin-2-yl]-3-methoxypiperidine-1-carbonyl}-N,N-dimethylpyridazin-3-amine]",1.62 µM
11,"CCn1cc(C(=O)N2CCCC(OC)(c3ncc(Cl)cc3C(F)(F)F)C2)cn1 (stereo not drawn) [Example 32, 5-Chloro-2-[1-(1-ethyl-1H-pyrazole-4-carbonyl)-3-methoxypiperidin-3-yl]-3-(trifluoromethyl)pyridine]",1.88 µM
12,"COC1(c2ncc(Cl)cc2C(F)(F)F)CCCN(C(=O)c2ccnc(N(C)C)c2)C1 (stereo not drawn) [Example 33, 4-{3-[5-Chloro-3-(trifluoromethyl)pyridin-2-yl]-3-methoxypiperidine-1-carbonyl}-N,N-dimethylpyridin-2-amine]",0.51 µM
13,"CNc1cc(C(=O)N2CCCC(OC)(c3ncc(Cl)cc3C)C2)ccn1 (stereo not drawn) [Example 34, 4-[3-(5-Chloro-3-methylpyridin-2-yl)-3-methoxypiperidine-1-carbonyl]-N-methylpyridin-2-amine]",0.47 µM
14,"COC1(c2ncc(Cl)cc2C)CCCN(C(=O)c2cnnc(N(C)C)c2)C1 (stereo not drawn) [Example 37, 5-[3-(5-Chloro-3-methylpyridin-2-yl)-3-methoxypiperidine-1-carbonyl]-N,N-dimethylpyridazin-3-amine]",0.92 µM
15,"CNc1cc(C(=O)N2CCCC(F)(c3ncc(Cl)cc3C)C2)cnn1 (stereo not drawn) [Example 38, 5-[3-(5-Chloro-3-methylpyridin-2-yl)-3-fluoropiperidine-1-carbonyl]-N-methylpyridazin-3-amine]",1.25 µM
16,"Cc1cc(Cl)cnc1C1(F)CCCN(C(=O)c2cnnc(N(C)C)c2)C1 (stereo not drawn) [Example 39, 5-[3-(5-Chloro-3-methylpyridin-2-yl)-3-fluoropiperidine-1-carbonyl]-N,N-dimethylpyridazin-3-amine]",0.4 µM
17,"CCn1cc(C(=O)N2CCCC(OC)(c3ncc(Cl)cc3C)C2)cn1 (stereo not drawn) [Example 40, 5-Chloro-2-[1-(1-ethyl-1H-pyrazole-4-carbonyl)-3-methoxypiperidin-3-yl]-3-methylpyridine]",3.41 µM
